# Laboratory results published in patent US10934298B2, “Substituted pyrazolo[1,5-a]pyrimidines for the treatment of medical disorders” (BIAL—BioTech Investments, Inc., priority 2016, dated 2021).
# Biological target: T1, glucocerebrosidase (Gcase) (Homo sapiens, UniProt P04062)
# T1 construct: micellar solution containing 10 nM GCase and 100 nM saposin C
# T1 sequence (P04062 40-536): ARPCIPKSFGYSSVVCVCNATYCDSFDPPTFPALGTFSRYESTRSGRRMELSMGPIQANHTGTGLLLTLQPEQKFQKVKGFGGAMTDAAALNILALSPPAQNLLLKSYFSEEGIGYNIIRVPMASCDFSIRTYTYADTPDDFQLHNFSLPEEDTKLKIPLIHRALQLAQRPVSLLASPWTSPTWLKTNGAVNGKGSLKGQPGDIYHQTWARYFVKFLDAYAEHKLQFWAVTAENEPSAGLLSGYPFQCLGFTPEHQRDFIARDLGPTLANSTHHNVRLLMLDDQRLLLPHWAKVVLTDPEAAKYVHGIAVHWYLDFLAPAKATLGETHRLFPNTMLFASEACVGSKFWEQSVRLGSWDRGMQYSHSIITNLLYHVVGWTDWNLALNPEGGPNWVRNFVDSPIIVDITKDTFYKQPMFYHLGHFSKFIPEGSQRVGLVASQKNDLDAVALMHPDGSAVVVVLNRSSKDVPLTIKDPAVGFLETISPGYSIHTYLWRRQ
# Experiment: Glucocerebrosidase (Gcase) activation assay with 4-methylumbelliferyl-beta-D-glucopyranoside substrate, saposin C and phosphatidylserine/triton micelles, fluorescence readout
# Format: biochemical
# Outline: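 Fluorescence (ex 365 nm, em 440 nm) read after glycine pH 12.5 stop of a 15 min room-temperature reaction. GCase 10 nM plus saposin C 100 nM in PS/triton micelles, pH 4.7, preincubated 30 min with compound; substrate solution held 2 mM 4-MU-beta-glucoside. Screened at 1.0 and 0.1 μM; 8-point, 3-fold curves from 5 μM top.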
"Percent Gcase Activation, 0.1 μM Test Compound (test compound at 0.1 μM)","Percent Gcase Activation, 1 μM Test Compound (test compound at 1.0 μM)","Percent Gcase Activation, 0.1 μM Test Compound (0.1 μM test compound)","Percent Gcase Activation, 1 μM Test Compound (1 μM test compound)",SMILES
*** (greater than 20% Gcase activation),+++ (Gcase activation greater than 60%),–,–,Cc1coc(-c2cc(C)n3ncc(C(=O)N[C@@H](C4CC4)C(F)(F)F)c3n2)n1 [III-256]
* (less than 10% Gcase activation),+ (less than 30% Gcase activation),–,–,Cc1cc(N2CCCN(C(C)C)C2=O)nc2c(C(=O)NC(C)(C)C)cnn12 [III-258]
* (less than 10% Gcase activation),+ (less than 30% Gcase activation),–,–,Cc1cc(N2CCCN(C(C)C)C2=O)nc2c(C(=O)NC(C)C(F)(F)F)cnn12 (centres unmarked) [III-259]
* (less than 10% Gcase activation),+ (less than 30% Gcase activation),–,–,Cc1cc(N2CCCN(C(C)C)C2=O)nc2c(C(=O)NC(C)(C)C3CC3)cnn12 [III-261]
* (less than 10% Gcase activation),+ (less than 30% Gcase activation),–,–,Cc1cc(N2CCCN(C(C)C)C2=O)nc2c(C(=O)NC(C)(C)C(F)(F)F)cnn12 [III-262]
*** (greater than 20% Gcase activation),+++ (Gcase activation greater than 60%),–,–,Cc1cc(-c2ccc(F)o2)nc2c(C(=O)NC(C3CC3)C(F)(F)F)cnn12 (centres unmarked) [III-264]
*** (greater than 20% Gcase activation),+++ (Gcase activation greater than 60%),–,–,COc1cncc(-c2cc(C)n3ncc(C(=O)NC(C4CC4)C(F)(F)F)c3n2)c1 (centres unmarked) [III-265]
*** (greater than 20% Gcase activation),+++ (Gcase activation greater than 60%),–,–,COc1cncc(-c2cc(C)n3ncc(C(=O)N[C@H](C4CC4)C(F)(F)F)c3n2)c1 [III-266]
*** (greater than 20% Gcase activation),+++ (Gcase activation greater than 60%),–,–,COc1cncc(-c2cc(C)n3ncc(C(=O)N[C@@H](C4CC4)C(F)(F)F)c3n2)c1 [III-267]
*** (greater than 20% Gcase activation),+++ (Gcase activation greater than 60%),–,–,COc1ccc(-c2cc(C)n3ncc(C(=O)NC(C4CC4)C(F)(F)F)c3n2)cn1 (centres unmarked) [III-268]
* (less than 10% Gcase activation),+ (less than 30% Gcase activation),–,–,COc1ccncc1-c1cc(C)n2ncc(C(=O)NC(C)C(F)(F)F)c2n1 (centres unmarked) [III-269]
*** (greater than 20% Gcase activation),+++ (Gcase activation greater than 60%),–,–,COc1ccc(-c2cc(C)n3ncc(C(=O)NC(C)C(F)(F)F)c3n2)cn1 (centres unmarked) [III-271]
*** (greater than 20% Gcase activation),+++ (Gcase activation greater than 60%),–,–,COc1ccc(-c2cc(C)n3ncc(C(=O)N[C@@H](C)C(F)(F)F)c3n2)cn1 [III-273]
* (less than 10% Gcase activation),+++ (Gcase activation greater than 60%),–,–,Cc1ccncc1-c1cc(C)n2ncc(C(=O)NC(C3CC3)C(F)(F)F)c2n1 (centres unmarked) [III-274]
*** (greater than 20% Gcase activation),+++ (Gcase activation greater than 60%),–,–,Cc1cncc(-c2cc(C)n3ncc(C(=O)NC(C4CC4)C(F)(F)F)c3n2)c1 (centres unmarked) [III-275]
*** (greater than 20% Gcase activation),+++ (Gcase activation greater than 60%),–,–,Cc1cncc(-c2cc(C)n3ncc(C(=O)N[C@H](C4CC4)C(F)(F)F)c3n2)c1 [III-276]
*** (greater than 20% Gcase activation),+++ (Gcase activation greater than 60%),–,–,Cc1cncc(-c2cc(C)n3ncc(C(=O)N[C@@H](C4CC4)C(F)(F)F)c3n2)c1 [III-277]
*** (greater than 20% Gcase activation),+++ (Gcase activation greater than 60%),–,–,Cc1ccc(-c2cc(C)n3ncc(C(=O)NC(C4CC4)C(F)(F)F)c3n2)cn1 (centres unmarked) [III-278]
*** (greater than 20% Gcase activation),+++ (Gcase activation greater than 60%),–,–,Cc1ccc(-c2cc(C)n3ncc(C(=O)N[C@@H](C4CC4)C(F)(F)F)c3n2)cn1 [III-280]
* (less than 10% Gcase activation),+ (less than 30% Gcase activation),–,–,Cc1ccncc1-c1cc(C)n2ncc(C(=O)NC(C)C(F)(F)F)c2n1 (centres unmarked) [III-281]
–,–,*** (greater than 20% Gcase activation),+++ (Gcase activation greater than 60%),Cc1cc(-c2cncc(C(F)(F)F)c2)nc2c(C(=O)NC(C)C(F)(F)F)cnn12 (centres unmarked) [III-285]
–,–,*** (greater than 20% Gcase activation),+++ (Gcase activation greater than 60%),Cc1cc(-c2cncc(C(F)(F)F)c2)nc2c(C(=O)N[C@H](C)C(F)(F)F)cnn12 [III-286]
–,–,*** (greater than 20% Gcase activation),+++ (Gcase activation greater than 60%),Cc1cc(-c2cncc(C(F)(F)F)c2)nc2c(C(=O)N[C@@H](C)C(F)(F)F)cnn12 [III-287]
–,–,*** (greater than 20% Gcase activation),+++ (Gcase activation greater than 60%),Cc1cc(-c2ccc3c(c2)OCO3)nc2c(C(=O)NC(C)C(F)(F)F)cnn12 (centres unmarked) [III-289]
–,–,*** (greater than 20% Gcase activation),+++ (Gcase activation greater than 60%),Cc1cc(-c2cncc(Cl)c2)nc2c(C(=O)N[C@@H](C)C3CC3)cnn12 [III-290]
–,–,*** (greater than 20% Gcase activation),+++ (Gcase activation greater than 60%),Cc1cc(-c2cncc(Cl)c2)nc2c(C(=O)N[C@H](C)C3CC3)cnn12 [III-291]

SMILES,"Percent Gcase Activation, 0.1 μM Test Compound (test compound at 0.1 μM)","Percent Gcase Activation, 1 μM Test Compound (test compound at 1.0 μM)","Percent Gcase Activation, 0.1 μM Test Compound (0.1 μM test compound)","Percent Gcase Activation, 1 μM Test Compound (1 μM test compound)"
Cc1coc(-c2cc(C)n3ncc(C(=O)N[C@H](C4CC4)C(F)(F)F)c3n2)n1 [III-255],** (Gcase activation in the range of 10% up to 20%),+++ (Gcase activation greater than 60%),–,–
Cc1cc(N2CCCN(C(C)C)C2=O)nc2c(C(=O)NC(C3CC3)C(F)(F)F)cnn12 (centres unmarked) [III-257],** (Gcase activation in the range of 10% up to 20%),++ (Gcase activation in the range of 30% up to 60%),–,–
Cc1cc(N2CCCN(CC(F)(F)F)C2=O)nc2c(C(=O)NC(C3CC3)C(F)(F)F)cnn12 (centres unmarked) [III-260],* (less than 10% Gcase activation),++ (Gcase activation in the range of 30% up to 60%),–,–
COc1ccncc1-c1cc(C)n2ncc(C(=O)NC(C3CC3)C(F)(F)F)c2n1 (centres unmarked) [III-263],* (less than 10% Gcase activation),++ (Gcase activation in the range of 30% up to 60%),–,–
COc1cncc(-c2cc(C)n3ncc(C(=O)NC(C)C(F)(F)F)c3n2)c1 (centres unmarked) [III-270],** (Gcase activation in the range of 10% up to 20%),+++ (Gcase activation greater than 60%),–,–
COc1ccc(-c2cc(C)n3ncc(C(=O)N[C@H](C)C(F)(F)F)c3n2)cn1 [III-272],** (Gcase activation in the range of 10% up to 20%),+++ (Gcase activation greater than 60%),–,–
Cc1ccc(-c2cc(C)n3ncc(C(=O)N[C@H](C4CC4)C(F)(F)F)c3n2)cn1 [III-279],** (Gcase activation in the range of 10% up to 20%),+++ (Gcase activation greater than 60%),–,–
Cc1cncc(-c2cc(C)n3ncc(C(=O)NC(C)C(F)(F)F)c3n2)c1 (centres unmarked) [III-282],** (Gcase activation in the range of 10% up to 20%),+++ (Gcase activation greater than 60%),–,–
Cc1ccc(-c2cc(C)n3ncc(C(=O)NC(C)C(F)(F)F)c3n2)cn1 (centres unmarked) [III-283],–,–,* (less than 10% Gcase activation),++ (Gcase activation in the range of 30% up to 60%)
Cc1cc(-c2cnccc2C(F)(F)F)nc2c(C(=O)NC(C)C(F)(F)F)cnn12 (centres unmarked) [III-284],–,–,** (Gcase activation in the range of 10% up to 20%),+++ (Gcase activation greater than 60%)
Cc1cc(-c2ccc(C(F)(F)F)nc2)nc2c(C(=O)NC(C)C(F)(F)F)cnn12 (centres unmarked) [III-288],–,–,** (Gcase activation in the range of 10% up to 20%),+++ (Gcase activation greater than 60%)
